This note sets out measurements from ChEMBL document CHEMBL4130497, “Fragment-based approach to identify IDO1 inhibitor building blocks” (Eur J Med Chem, 2017).

Bounds are passed on as bounds.

A word on the Kd: it is the constant that tells how readily two partners part at equilibrium. A word on the logP: it is the decadic logarithm of the partition coefficient of the neutral form, usually between octanol and water. A high value points to higher lipophilicity. Broadly, the pKa is the negative logarithm of the acid dissociation constant.

Data set [1] addresses Indoleamine 2,3-dioxygenase 1 (Homo sapiens, UniProt P14902). Description: Binding affinity to NT647 dye labeled recombinant human IDO1 (1 to 403 residues) by microscale thermophoresis method.
Data set [2] can be described thus: Lipophilicity, log P of the compound in n1-octanol and water by pH-metric assay. The data set is classed as physicochemical. To be noted: n-octanol/water.
Data set [3] is described as follows: Dissociation constant, pKa of the compound. The data set is classed as physicochemical.
Data set [4] addresses Indoleamine 2,3-dioxygenase 1 (Mus musculus) (UniProt P28776). As to the kind of experiment: Inhibition of mouse IDO1 expressed in mouse P1.HTR cells assessed as reduction in kynurenine production from L-Trp incubated for 16 hrs by HPLC method. The data set is classed as cell-based.

Indoleamine 2,3-dioxygenase 1, sequence (P14902 whole entry, the tested form may be a part): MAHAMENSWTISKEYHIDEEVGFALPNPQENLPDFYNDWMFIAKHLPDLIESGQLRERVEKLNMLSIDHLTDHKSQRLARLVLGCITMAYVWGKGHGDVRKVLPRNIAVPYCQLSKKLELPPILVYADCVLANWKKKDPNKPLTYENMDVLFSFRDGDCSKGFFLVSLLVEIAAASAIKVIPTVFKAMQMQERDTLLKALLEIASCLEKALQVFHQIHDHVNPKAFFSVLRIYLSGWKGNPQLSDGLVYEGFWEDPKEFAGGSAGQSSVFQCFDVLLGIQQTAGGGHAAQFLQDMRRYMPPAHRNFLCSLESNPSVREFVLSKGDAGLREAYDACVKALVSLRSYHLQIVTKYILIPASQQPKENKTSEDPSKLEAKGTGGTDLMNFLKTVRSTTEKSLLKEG
Indoleamine 2,3-dioxygenase 1 (Mus musculus), sequence (P28776 whole entry, looked up): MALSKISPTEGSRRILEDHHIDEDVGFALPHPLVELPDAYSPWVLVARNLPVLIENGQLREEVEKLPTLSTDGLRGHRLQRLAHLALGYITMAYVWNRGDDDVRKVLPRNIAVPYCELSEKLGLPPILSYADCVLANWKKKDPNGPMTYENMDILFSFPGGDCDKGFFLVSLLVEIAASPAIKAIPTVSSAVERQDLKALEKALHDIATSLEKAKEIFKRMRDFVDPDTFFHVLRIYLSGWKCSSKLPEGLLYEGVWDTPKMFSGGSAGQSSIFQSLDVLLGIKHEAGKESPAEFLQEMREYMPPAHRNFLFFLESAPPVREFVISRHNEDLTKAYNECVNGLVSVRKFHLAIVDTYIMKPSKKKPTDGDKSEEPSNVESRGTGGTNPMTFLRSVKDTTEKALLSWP

On to `NC(S)=NNC(=O)Nc1ccc(Cl)c(Cl)c1`, for which the Kd in data set [1] stood at 941 µM.

In the case of `Cc1ccc(NCCNC(=O)c2c[nH]c3ccccc23)nn1`, the Kd in data set [1] is above 1000 µM.

For `NCCc1nc2ccc(F)cc2[nH]1`, in data set [1], the Kd is 548 µM.

Consider `Cc1c(C)n(CC(O)CN2CCNCC2)c2ccccc12` (stereo not given), for which the dissociation constant (Kd) in data set [1] was 96.7 µM.

For the compound `COc1ccccc1OCC(O)Cn1cnc2ccccc21` (stereo not given), the Kd in data set [1] came out at 86.8 µM.

For `NCC(O)COCC1COc2ccccc2O1` (stereo not given), the Kd in data set [1] was above 1000 µM.

On to `OC(c1nc2ccccc2[nH]1)C(O)c1nc2ccccc2[nH]1` (stereo not given), for which the Kd in data set [1] was 774 µM.

For the compound `O=C(NCCn1ncccc1=O)c1ccc2ccccc2c1`, the Kd in data set [1] was 240 µM.

In the case of `Cn1cc(C(O)CN)c2ccccc21` (stereo not given), the Kd in data set [1] worked out at 97 µM.

Take `NC(=O)CN1CCN(c2cccc3ccccc23)C(=O)C1=O`: in data set [1], the Kd was above 1000 µM.

Turning to `NCC(O)c1cc(Cl)cc(Cl)c1` (stereo not given), the Kd in data set [1] is above 1000 µM.

Regarding `COC(=O)C(N)c1ccc2ccccc2c1` (stereo not given), the Kd in data set [1] was 169 µM.

On to `O=C(/C=C/N1CCOCC1)c1coc2ccccc12`, for which, in data set [1], the Kd was found to be 147 µM.

Consider `O=C1CC(NC(=O)Cn2ccc3ccccc32)CN1` (stereo not given), for which, in data set [1], the Kd was found to be 237 µM.

For the compound `CCc1cccc2sc(NCCN3CCOCC3)nc12`, the Kd in data set [1] is 33.5 µM. In data set [2], the logP stood at 2.3. The compound further returned a pKa in data set [3] of 3.1 to 6.2.

For `N=C(N)Sc1c[nH]c2ccccc12`, in data set [1], the Kd amounted to 17.8 µM. The same compound yielded a logP in data set [2] of 1.8. Besides, the pKa in data set [3] came out at 9.5. In addition, the fold change (FC) in data set [4] is below 0.6.

Turning to `NCC(O)c1cccc2ccccc12` (stereo not given), in data set [1], the dissociation constant Kd was above 1000 µM.

With `COc1ccc(-c2cnc(CN)[nH]2)cc1`, in data set [1], the Kd is above 500 µM.

`NC(=O)c1csc(NC(=O)Cc2c[nH]c3ccccc23)c1`: the Kd in data set [1] came out at 61.5 µM.

With `OC(CC1c2ccccc2-c2cncn21)C1CCCCC1` (stereo not given), in data set [3], the pKa turned out to be 6.7.

Regarding `O=S(=O)(NCc1cccnc1)c1ccc2ccccc2c1`, the Kd in data set [1] stood at 53.7 µM. In data set [2], this compound returned a logP of 2.5. Moreover, the pKa in data set [3] fell in the range of 4.8 to 10.3.

Turning to `COc1ccccc1OCC(O)CNC1CCCC1` (stereo not given), in data set [1], the Kd is above 1000 µM.

With `Cc1ccc(NCCNC(=O)c2cccc(Cl)c2)nn1`, the Kd in data set [1] was above 1000 µM.
